Results taken from patent US20250188113A1, “HIGH PURITY NON-ANIMAL DERIVED TUDCA” (SANDHILL ONE, LLC, priority 2021, published 2025).

How the values were obtained:
[1] = DVS mass change (moisture sorption); type: physicochemical
[2] = Crystallinity of Pattern L upon drying (XRPD); type: physicochemical; details: dried in a 50° C. oven under −29.5 in Hg for 3 h
Experimental: Pattern L was prepared by the slurry method. In this experiment, 205.4 mg of solid commercial-grade plant derived TUDCA was mixed with 2.2 mL of IPAc:MeOH (7.3:2.9 vol.) in a 4 mL vial at 50° C. The mixture was sonicated for 1 h and stirred for 15 min at 400 rpm, after which it was filtered and analyzed by XRPD. […] As this pattern was a possible hydrate, it was placed in a humidity chamber at 55% RH to see if the crystallinity would increase. The yield was 114.6 mg […].

SMILES	DVS mass change 5-95% RH (wt. %) [1] [wt. %]	further results
CC(C)(C)N.C[C@H](CCC(=O)O)[C@H]1CC[C@H]2[C@@H]3C(=O)C[C@@H]4CC(=O)CC[C@]4(C)[C@H]3CC[C@]12C [tert-Butylamine salt, tert-butylamine salt of 3,7-DKCA]	10.89	–
CC(C)NC(C)C.C[C@H](CCC(=O)O)[C@H]1CC[C@H]2[C@@H]3C(=O)C[C@@H]4CC(=O)CC[C@]4(C)[C@H]3CC[C@]12C [Diisopropylamine salt, diisopropylamine salt of 3,7-DKCA]	2.53	–
C[C@H](CCC(=O)NCCS(=O)(=O)O)[C@H]1CC[C@H]2[C@@H]3[C@@H](O)C[C@@H]4C[C@H](O)CC[C@]4(C)[C@H]3CC[C@]12C [Pattern L, Tauroursodeoxycholic acid]	–	Crystallinity upon drying [2]: decrease
C[C@H](CCC(=O)NCCS(=O)(=O)O)[C@H]1CC[C@H]2[C@@H]3[C@@H](O)C[C@@H]4C[C@H](O)CC[C@]4(C)[C@H]3CC[C@]12C [Pattern A, Tauroursodeoxycholic acid]	–	DVS mass change 2-95% RH (wt. %) ([1]; 2-95% RH): 0.96 wt. %
C[C@H](CCC(=O)O)[C@H]1CC[C@H]2[C@@H]3C(=O)C[C@@H]4CC(=O)CC[C@]4(C)[C@H]3CC[C@]12C.NCCN [Ethylenediamine salt, ethylenediamine salt of 3,7-DKCA]	19.60	–
CC(CCC(=O)NCCS(=O)(=O)O)C1CCC2C3C(O)CC4CC(O)CCC4(C)C3CCC12C.N=C(N)NCCCC(N)C(=O)O [Pattern 1-A (L-arginine), L-arginine TUDCA]	–	DVS mass change 2-80% RH (wt. %) ([1]; 2-80% RH): 2.91 wt. %
